The assay has as its system RD. Description: relative viability vs DMSO control (72 h) (fraction); higher = more viable cells. An outline of the steps: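 Sarcoma cell lines were grown in 384-well plates seeded toward 80–90% confluence and exposed 24 h later to serially diluted compound. After 72 h at 37 °C and 5% CO2, with 0.1% DMSO vehicle and a 5 µM positive control on the plates, ATPLite was read. Relative viability, given as percent growth averaged over up to triplicate wells, was rescaled so that 1 is full and 0 is none.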

For four molecules, relative viability results are on record in the supplement of paper PMC10883282.

Molecules are shown by their SMILES. ± gives the standard deviation of the averaged measurements.

Turning to `COc1c(OCCCN2CCOCC2)ccc2c1N=C(NC(=O)c1cnc(N)nc1)N1CCN=C21` [Copanlisib], the relative viability by setting is: (0.00017 µM) 1.07 ± 0.038; (0.00051 µM) 1.06 ± 0.032; (0.00152 µM) 1.07 ± 0.082; (0.00457 µM) 0.77 ± 0.053; (0.01372 µM) 0.741 ± 0.098; (0.04115 µM) 0.61 ± 0.01. The relative viability (0.1235 µM) worked out at 0.438 ± 0.019; the relative viability (0.3704 µM) came out at 0.328 ± 0.011; the relative viability (1.111 µM) was found to be 0.268 ± 0.013; the relative viability (3.333 µM) was found to be 0.225 ± 0.014; the relative viability (10 µM) was determined as 0.184 ± 0.015.
As for `CN1CCN(c2ccc3nc(-c4c(N)c5c(F)cccc5[nH]c4=O)[nH]c3c2)CC1` [Dovitinib], the relative viability is 0.963 ± 0.05 (0.00017 µM); 0.983 ± 0.064 (0.00051 µM); 0.991 ± 0.072 (0.00152 µM); 0.985 ± 0.053 (0.00457 µM); 0.978 ± 0.099 (0.01372 µM); 0.995 ± 0.074 (0.04115 µM). Moreover, the relative viability by setting is: (0.1235 µM) 0.998 ± 0.071; (0.3704 µM) 0.99 ± 0.072; (1.111 µM) 0.812 ± 0.073; (3.333 µM) 0.632 ± 0.05; (10 µM) 0.113 ± 0.035.
As to `COCc1c(-c2cc3cc(C)cc(OC)c3s2)c2c(N)ncnn2c1CN1CCNC(=O)C1` [Rogaratinib], the relative viability was 1.03 ± 0.022 (0.00017 µM); 1.09 ± 0.017 (0.00051 µM); 1.08 ± 0.024 (0.00152 µM); 1.11 ± 0.037 (0.00457 µM); 1.09 ± 0.033 (0.01372 µM); 1.12 ± 0.016 (0.04115 µM). Further, the relative viability by setting is: (0.1235 µM) 1.1 ± 0.057; (0.3704 µM) 1.08 ± 0.03; (1.111 µM) 1.07 ± 0.047; (3.333 µM) 0.923 ± 0.042; (10 µM) 0.569 ± 0.015.
For the molecule `CN1CCC(COc2cnc(-c3cccc(Cn4nc(-c5cccc(C#N)c5)ccc4=O)c3)nc2)CC1` [Tepotinib], the relative viability (0.00017 µM) was 1.03 ± 0.049; the relative viability (0.00051 µM) was 1.1 ± 0.084; the relative viability (0.00152 µM) was 1.09 ± 0.039; the relative viability (0.00457 µM) was determined as 1.1 ± 0.055; the relative viability (0.01372 µM) stood at 1.12 ± 0.031; the relative viability (0.04115 µM) came out at 1.13 ± 0.049. Further, the relative viability amounted to 1.12 ± 0.093 (0.1235 µM); 1.14 ± 0.029 (0.3704 µM); 1.1 ± 0.065 (1.111 µM); 1.11 ± 0.031 (3.333 µM); 0.941 ± 0.07 (10 µM).
